Measurements: patent publication US8841233B2, “Herbicidal compositions comprising 4-amino-3-chloro-5-fluoro-6-(4-chloro-2-fluoro-3-methoxyphenyl) pyridine-2-carboxylic acid or a derivative thereof and 4-hydroxyphenyl-pyruvate dioxygenase (HPPD) inhibitors” (Dow Agrosciences LLC, priority 2012, dated 2014)

Assays:
LEFCH [1] = experiment: In-water applied weed control, transplanted paddy rice, greenhouse (Example II); assay type: in vivo, Leptochloa chinensis (L.) Nees
Procedure: (§1) Evaluation of in-Water Applied Herbicidal Mixtures for Weed Control in Transplanted Paddy Rice
(§2) Weed seeds or nutlets of the desired test plant species were planted in puddled soil (mud) prepared by mixing a shredded, non-sterilized mineral soil (50.5 percent silt, 25.5 percent clay, and 24 percent sand, with a pH of about 7.6 and an organic matter content of about 2.9 percent) and water at a 1:1 volumetric ratio. The prepared mud was dispensed in 365 mL aliquots into 16-ounce (oz.) non-perforated plastic pots with a surface area of 86.59 square centimeters (cm^2) leaving a headspace of 3 centimeters (cm) in each pot. Mud was allowed to dry overnight prior to planting or transplanting. Rice seeds were planted in Sun Gro MetroMix® 306 planting mixture, which typically has a pH of 6.0 to 6.8 and an organic matter content of about 30 percent, in plastic plug trays. Seedlings at the second or third leaf stage of growth were transplanted into 840 mL of mud contained in 32-oz. non-perforated plastic pots with a surface area of 86.59 cm^2 4 days prior to herbicide application. The paddy was created by filling the headspace of the pots with 2.5 to 3 cm of water. When required to ensure good germination and healthy plants, a fungicide treatment and/or other chemical or physical treatment was applied. The plants were grown for 4-22 days in a greenhouse with an approximate 14 h photoperiod which was maintained at about 29′C during the day and 26° C. during the night. Nutrients were added as Osmocote® (19:6:12, N:P:K+ minor nutrients) at 2 g per 16-oz. pot and 4 g per 32-oz. pot. Water was added on a regular basis to maintain the paddy flood, and supplemental lighting was provided with overhead metal halide 1000-Watt lamps as necessary. The plants were employed for testing when they reached the first through fourth true leaf stage.
(§3) Treatments consisted of the acid or esters of 4-amino-3-chloro-5-fluoro-6-(4-chloro-2-fluoro-3-methoxy-phenyl)pyridine-2-carboxylic acid (compound A) each formulated as an SC (suspension concentrate) and various herbicidal components alone and in combination. Forms of compound A were applied on an acid equivalent basis.
(§4) Other herbicidal components were applied on an active ingredient basis and included 4-hydroxyphenyl pyruvate dioxygenase (HPPD)-inhibiting herbicides mesotrione formulated as Callisto®, sulcotrione formulated as Mikado®, pyrazolynate formulated as Sunbird® 10% GR, and benzobicyclon formulated as Benzobicyclon 3.5% or technical material.
(§5) Treatment requirements for each compound or herbicidal component were calculated based upon the rates being tested, the concentration of active ingredient or acid equivalent in the formulation, an application volume of 2 mL per component per pot, and an application area of 86.59 cm^2 per pot.
(§6) For formulated compounds, a measured amount was placed in an individual 100 or 200 mL glass vial and was dissolved in a volume of 1.25% (v/v) Agri-Dex® crop oil concentrate to obtain application solutions.
(§7) For technical grade compounds, a weighed amount was placed in an individual 100 to 200 mL glass vial and was dissolved in a volume of acetone to obtain concentrated stock solutions. […] The concentrated stock solutions obtained were diluted with an equivalent volume of an aqueous mixture containing 2.5% (v/v) crop oil concentrate so that the final application solutions contained 1.25% (v/v) crop oil concentrate.
(§8) Applications were made by injecting with a pipetter appropriate amounts of the application solutions, individually and sequentially, into the aqueous layer of the paddy. Control plants were treated in the same manner with the solvent blank. Applications were made so that all treated plant material received the same concentrations of acetone and crop oil concentrate.
(§9) The treated plants and control plants were placed in a greenhouse as described above and water was added as needed to maintain a paddy flood. […]

ECHOR = experiment: as above; assay type: in vivo, Echinochloa oryzoides (Ard.) Fritsch
Procedure: as §1, §2, §3, §4, §5, §6, §7, §8, §9

LEFCH [2] = experiment: Post-emergence foliar-applied weed control, greenhouse (Example I); assay type: in vivo, Leptochloa chinensis (L.) Nees; details: 150 gai/ha
Description: (§10) Evaluation of Post-emergence Foliar-Applied Herbicidal Mixtures for Weed Control in Direct Seeded Rice
Seeds or nutlets of the desired test plant species were planted in a soil matrix prepared by mixing a loam or sandy loam soil (e.g., 28.6 percent silt, 18.8 percent clay, and 52.6 percent sand, with a pH of about 5.8 and an organic matter content of about 1.8 percent) and calcareous grit in an 80 to 20 ratio. The soil matrix was contained in plastic pots with a volume of 1 quart and a surface area of 83.6 square centimeters (cm^2). When required to ensure good germination and healthy plants, a fungicide treatment and/or other chemical or physical treatment was applied. The plants were grown for 8-22 days in a greenhouse with an approximate 14 h photoperiod which was maintained at about 29° C. during the day and 26° C. during the night. Nutrients (Peters Excel® 15-5-15 5-Ca 2-Mg and iron chelate) were applied in the irrigation solution as needed and water was added on a regular basis. Supplemental lighting was provided with overhead metal halide 1000-Watt lamps as necessary. The plants were employed for testing when they reached the first through fourth true leaf stage. […]
(§11) Treatment requirements were calculated based upon the rates being tested, the concentration of active ingredient or acid equivalent in the formulation, and a 12 mL application volume at a rate of 187 L/ha.
For treatments comprised of formulated compounds, measured amounts of compounds were placed individually in 25 mL glass vials and diluted in a volume of 1.25% (v/v) Agri-Dex® crop oil concentrated to obtain 12× stock solutions. […]
For treatments comprised of formulated and technical compounds, weighed amounts of the technical materials were placed individually in 25 mL glass vials and dissolved in a volume of 97:3 v/v acetone/DMSO to obtain 12× stock solutions, and measured amounts of the formulated compounds were placed individually in 25 mL glass vials and diluted in a volume of 1.5% (v/v) crop oil concentrate or water to obtain 12× stock solutions. […]

IPOHE = experiment: as above; assay type: in vivo, Ipomoea hederacea Jacq.; details: 150 gai/ha
Description: as §10
(§12) Seeds or nutlets of the desired test plant species were planted in a soil matrix prepared by mixing a loam or sandy loam soil (e.g., 28.6 percent silt, 18.8 percent clay, and 52.6 percent sand, with a pH of about 5.8 and an organic matter content of about 1.8 percent) and calcareous grit in an 80 to 20 ratio. The soil matrix was contained in plastic pots with a volume of 1 quart and a surface area of 83.6 square centimeters (cm^2). When required to ensure good germination and healthy plants, a fungicide treatment and/or other chemical or physical treatment was applied. The plants were grown for 8-22 days in a greenhouse with an approximate 14 h photoperiod which was maintained at about 29° C. during the day and 26° C. during the night. Nutrients (Peters Excel® 15-5-15 5-Ca 2-Mg and iron chelate) were applied in the irrigation solution as needed and water was added on a regular basis. Supplemental lighting was provided with overhead metal halide 1000-Watt lamps as necessary. The plants were employed for testing when they reached the first through fourth true leaf stage.
as §3, with “(Compound A),” for “(compound A)”, “concentrate),” for “concentrate)”, “Compound” for “compound”
as §4, with “3.5%.” for “3.5% or technical material.”
as §11
(§13) For treatments comprised of formulated compounds, measured amounts of compounds were placed individually in 25 mL glass vials and diluted in a volume of 1.25% (v/v) Agri-Dex® crop oil concentrated to obtain 12× stock solutions. […] Application solutions were prepared by adding an appropriate amount of each stock solution (e.g., 1 mL) and diluted to the appropriate final concentrations with the addition of 10 mL of an aqueous mixture of 1.25% (v/v) crop oil concentrate so that the final spray solutions contained 1.25+/−0.05% (v/v) crop oil concentrate.
(§14) For treatments comprised of formulated and technical compounds, weighed amounts of the technical materials were placed individually in 25 mL glass vials and dissolved in a volume of 97:3 v/v acetone/DMSO to obtain 12× stock solutions, and measured amounts of the formulated compounds were placed individually in 25 mL glass vials and diluted in a volume of 1.5% (v/v) crop oil concentrate or water to obtain 12× stock solutions. […] Application solutions were prepared by adding an appropriate amount of each stock solution (e.g., 1 mL) and diluted to the appropriate final concentrations with the addition of an appropriate amount of an aqueous mixture of 1.5% (v/v) crop oil concentrate so that the final spray solutions contained 1.25% (v/v) crop oil concentrate. As required, additional water and/or 97:3 v/v acetone/DMSO was added to individual application solutions so that the final acetone and DMSO concentrations of the application solutions being compared were 8.1% and 0.25%, respectively.
(§15) All stock solutions and applications solutions were visually inspected for compound compatibility prior to application. Spray solutions were applied to the plant material with an overhead Mandel track sprayer equipped with a 8002E nozzles calibrated to deliver 187 L/ha over an application area of 0.503 m^2 at a spray height of 18 to 20 inches (46 to 50 cm) above average plant canopy height. […]

SCPMA = experiment: In-water applied weed control, transplanted paddy rice, greenhouse (Example II); assay type: in vivo; details: 37.5 gai/ha
Procedure: as §1, §2, §3, §4, §5, §6, §7, §8, §9

ECHCG [3] = experiment: as above; assay type: in vivo, Echinochloa crusgalli (L.) Beauv.
Procedure: as §1, §2, §3, §4, §5, §6, §7, §8, §9

FIMMI = experiment: as above; assay type: in vivo, Fimbristylis miliacea (L.) Vahl
Procedure: as §1, §2, §3, §4, §5, §6, §7, §8, §9

CYPRO = experiment: as above; assay type: in vivo, Cyperus rotundus L.
Procedure: as §1, §2, §3, §4, §5, §6, §7, §8, §9

ECHCG [4] = experiment: Post-emergence foliar-applied weed control, greenhouse (Example I); assay type: in vivo, Echinochloa crusgalli (L.) Beauv.
Description: as §10, §12
as §3, with “(Compound A),” for “(compound A)”, “concentrate),” for “concentrate)”, “Compound” for “compound”
as §4, with “3.5%.” for “3.5% or technical material.”
as §11, §13, §14, §15

ECHCO = experiment: In-water applied weed control, transplanted paddy rice, greenhouse (Example II); assay type: in vivo, Echinochloa colona (L.) Link
Procedure: as §1, §2
as §3, with “basis. […]” for “basis.”
as §5
(§16) For formulated compounds, a measured amount was placed in an individual 100 or 200 mL glass vial and was dissolved in a volume of 1.25% (v/v) Agri-Dex® crop oil concentrate to obtain application solutions. […]

SCPJU = experiment: as above; assay type: in vivo, Schoenoplectus juncoides (Roxb.) Palla
Procedure: as §1
as §2, with “Water was added on a regular basis to maintain the paddy flood, and supplemental lighting was provided with overhead metal halide 1000-Watt lamps as necessary. The plants were employed for testing when they reached the first through fourth true leaf stage.” left out
as §5, §16

For Cc1ccc(S(=O)(=O)Oc2c(C(=O)c3ccc(Cl)cc3Cl)c(C)nn2C)cc1 [Pyrazolynate, (2,4-dichlorophenyl)[1,3-dimethyl-5-[[(4-methylphenyl)sulfonyl]oxy]-1H-pyrazol-4-yl]methanone, reference compound], which “Visual Weed Control (%) - 21 DAA LEFCH Obs” value (LEFCH [1]; 37.5 gai/ha) is on record?
The value was 0%.

What about the “Visual Weed Control (%) - 21 DAA LEFCH Obs” value (LEFCH [1]; 75 gai/ha) of the same compound?
Its value is 50%.

What about the “Visual Weed Control (%) - 21 DAA ECHOR Obs” value (ECHOR; 37.5 gai/ha) of the same compound?
The value was 0%.

And the “Visual Weed Control (%) - 21 DAA ECHOR Obs” value (ECHOR; 75 gai/ha)?
Its value is 8%.

And the “Visual Weed Control (%) - 21 DAA ECHOR Obs” value (ECHOR; 150 gai/ha)?
Its value is 13%.

And the “Visual Weed Control (%) - 21 DAA LEFCH Obs” value (LEFCH [2])?
The value was 5%.

And the “Visual Weed Control (%) - 21 DAA IPOHE Obs” value (IPOHE)?
The value was 10%.

And the “Visual Weed Control (%) - 21 DAA SCPMA Obs” value (SCPMA)?
The value was 0%.

And the “Visual Weed Control (%) - 21 DAA ECHCG Obs” value (ECHCG [3]; 37.5 gai/ha)?
The value was 0%.

What about the “Visual Weed Control (%) - 21 DAA ECHCG Obs” value (ECHCG [3]; 75 gai/ha) of the same compound?
The value was 0%.

What about the “Visual Weed Control (%) - 21 DAA FIMMI Obs” value (FIMMI; 37.5 gai/ha) of the same compound?
The value was 0%.

And the “Visual Weed Control (%) - 21 DAA FIMMI Obs” value (FIMMI; 75 gai/ha)?
The value was 0%.

And the “Visual Weed Control (%) - 21 DAA CYPRO Obs” value (CYPRO; 37.5 gai/ha)?
The value was 0%.

What about the “Visual Weed Control (%) - 21 DAA CYPRO Obs” value (CYPRO; 75 gai/ha) of the same compound?
Its value is 0%.

What about the “Visual Weed Control (%) - 22 DAA ECHCG Obs” value (ECHCG [4]; 37.5 gai/ha) of the same compound?
The value was 0%.

What about the “Visual Weed Control (%) - 22 DAA ECHCG Obs” value (ECHCG [4]; 75 gai/ha) of the same compound?
The value was 0%.

And the “Visual Weed Control (%) - 21 DAA ECHCG Obs” value (ECHCG [4]; 150 gai/ha)?
The value was 0%.

And the “Visual Weed Control (%) - 21 DAA ECHCO Obs” value (ECHCO; 37.5 gai/ha)?
The value was 0%.

What about the “Visual Weed Control (%) - 21 DAA ECHCO Obs” value (ECHCO; 75 gai/ha) of the same compound?
Its value is 0%.

And the “Visual Weed Control (%) - 21 DAA SCPJU Obs” value (SCPJU; 37.5 gai/ha)?
Its value is 0%.

What about the “Visual Weed Control (%) - 21 DAA SCPJU Obs” value (SCPJU; 75 gai/ha) of the same compound?
The value was 0%.
